From PubChem BioAssay (NCI)
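The compound was tested at five concentrations on cells cultured in 96-well plates, with a 48-hour exposure period. GI50 is the concentration that inhibits growth by half. The concentration for full growth arrest is given as TGI.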

Legend:
Experiment in all cases: DTP human tumour cell line panel, 48 h
[1] = test system: SW-620 colon
[2] = test system: ACHN renal
[3] = test system: OVCAR-5 ovarian
[4] = test system: HS 578T breast
[5] = test system: HCC-2998 colon
[6] = test system: LOX IMVI melanoma
[7] = test system: NCI-H23 lung
[8] = test system: A549 NSCLC
[9] = test system: M14 melanoma
[10] = test system: SK-OV-3 ovarian

Structure (SMILES) | GI50 [1] [µM] | TGI [1] [µM] | GI50 [2] [µM] | TGI [2] [µM] | GI50 [3] [µM] | TGI [3] [µM] | GI50 [4] [µM] | TGI [4] [µM] | GI50 [5] [µM] | TGI [5] [µM] | GI50 [6] [µM] | TGI [6] [µM] | GI50 [7] [µM] | TGI [7] [µM] | GI50 [8] [µM] | TGI [8] [µM] | GI50 [9] [µM] | TGI [9] [µM] | GI50 [10] [µM] | TGI [10] [µM]
COc1ccccc1/C=N\N=C(N/N=C/c1ccccc1OC)N/N=C/c1ccccc1OC | 3.38 | 13.6 | 3.14 | > 100 | 4 | > 100 | 2.88 | 53.2 | 3.82 | > 100 | 3.33 | 11.3 | 3.91 | > 100 | 3.6 | > 100 | 2.99 | 9.96 | 2.68 | 8.32
CO[C@@H]1/C=C(C)/C=C/[C@@H](C)/C=C(\C)C(=O)OC(/C(C)=C/C=C(\C)CNC(=O)[C@H](CO)NC=O)[C@@H](C)/C=C/C=C/[C@H](OC)CC/C=C(C)/C=C/C1 (stereo partly specified) | < 0.005 | 13.6 | 0.00904 | 0.187 | 0.178 | 12.5 | < 0.005 | 24.9 | – | – | < 0.005 | < 0.005 | < 0.005 | 0.266 | 0.00881 | 0.0242 | < 0.005 | < 0.005 | 0.332 | 9.48
O=C(c1ccco1)c1c(C(F)(F)F)n([O-])c2ccccc2[n+]1=O | 0.859 | 20.5 | 0.506 | 4.21 | 3.68 | 13.4 | 1.75 | 13.1 | – | – | 0.548 | 2.1 | 1.21 | 7.26 | 3.18 | 27.7 | 0.613 | 1.91 | 6.69 | 21
O=Nc1ccc2ccccc2c1O | 2.88 | 10.5 | 5.5 | 18.4 | 14.1 | 30.4 | 1.56 | 5.07 | 14.7 | 29.1 | 1.68 | 5.71 | 3.18 | 16.1 | 6.2 | 19.6 | 5.07 | 16.5 | 19.9 | 45.5
COc1ccc2c(c1)C(c1ccccc1Cl)=Nc1c(n[nH]c1C)N2 | > 16.1 | > 25 | > 20.5 | > 25 | > 25 | > 25 | 3.43 | 20.3 | > 25 | > 25 | 14.7 | > 25 | 22.6 | > 25 | 12.5 | > 25 | > 25 | > 25 | > 25 | > 25
COC(=O)[C@]12CC[C@@H](C)[C@H](C)[C@@H]1C1=CC[C@@H]3[C@@]4(C)C=C(O)C(=O)[C@@]5(C)COC(=C54)C[C@@]3(C)[C@]1(C)CC2 | 11.3 | 26.3 | 11.7 | 28.7 | 20.9 | 49.6 | 16.1 | 49.9 | 11.5 | 26.7 | 8.85 | 22.4 | 4.19 | 18.2 | 8.36 | 26 | 11.7 | 27.3 | 14.6 | 32.5
